What was measured:
Type in all cases: in vivo
[1] = test system: Comstock mealybug (Pseudococcus comstocki); assay: Test Example 1: test on effects against Comstock mealybug, leaf disk spray; conditions: foliar, 168 h, first instar larvae, 7 days after application, read-out: Corrected mortality
From the text: (§1) A plastic cup (diameter 9 cm, height: 4 cm) filled with tap water was covered with a plastic lid (diameter 9 cm, with a hole having a diameter of 0.5 cm at its center portion), and an absorbent cotton sheet (diameter 9 cm) as shown in FIG. 1 was placed thereon. The cut portion of the absorbent cotton sheet was put into the plastic cup through the hole at the center portion of the lid and dipped in the tap water. Filter paper (diameter 9 cm) was placed on the absorbent cotton sheet, and a kidney bean primary leaf was further placed thereon so that the abaxial side faced upward. The kidney bean primary leaf was covered with filter paper (diameter 9 cm, with a hole having a diameter of 3 cm at its center portion) to prepare a leaf disk.
(§2) Thirty first instar larvae of Comstock mealybug (Pseudococcus comstocki) were released on the hole at the center portion of the leaf disk, and the leaf disk was left at rest in a breeding room (25° C., humidity: 60%). Two days later, the number of surviving larvae in the leaf disk was examined, and then a chemical solution at predetermined concentrations of active ingredients was sprayed on the leaf disc by a rotary spraying apparatus (tower sprayers TS-301) in an application amount corresponding to 100 L/10 a, and the leaf disk was left at rest in the breeding room. Seven days after application, the number of surviving larvae was examined, and the difference with the number of surviving larvae before application was taken as the mortality. The same test was conducted using tap water as a negative control, the corrected mortality (%) was calculated in accordance with the formula 1, and the results are shown in Table 1. Further, in accordance with the Colby's formula, the theoretical value (%) was calculated based on the obtained corrected mortality and shown in brackets in Table 1. The composition of the present invention has a synergistic pesticidal effect when the corrected mortality is higher than the theoretical value by the Colby's formula. The test was conducted three times. Corrected mortality (%)=100×((morality in treated area−mortality in control area)/(100−mortality in control area)) Formula 1

[2] = test system: Comstock mealybug (Pseudococcus comstocki); assay: Test Example 2: same test as Test Example 1, different flonicamid concentration; conditions: 168 h, first instar larvae, 7 days after application, read-out: Corrected mortality
From the text: as §1
as §2, with “Corrected mortality (%)=100×((morality in treated area−mortality in control area)/(100−mortality in control area)) Formula 1” left out

[3] = test system: Comstock mealybug (Pseudococcus comstocki); assay: Test Example 3: same test as Test Example 1, different flonicamid and D-limonene concentrations; conditions: 168 h, first instar larvae, 7 days after application, read-out: Corrected mortality
From the text: as §1, §2
The test was conducted in the same manner as in Test Example 1 except that the concentrations of flonicamid and D-limonene were different.

SMILES	mortality at 720 ppm ([1]; D-limonene 720 ppm alone) [%]	mortality at 1440 ppm ([1]; D-limonene 1440 ppm alone) [%]	mortality at 720 ppm ([2]; D-limonene 720 ppm alone) [%]	mortality at 1440 ppm ([2]; D-limonene 1440 ppm alone) [%]	mortality at 180 ppm ([3]; D-limonene 180 ppm alone) [%]	mortality at 360 ppm ([3]; D-limonene 360 ppm alone) [%]	mortality at 10 ppm ([1]; flonicamid 10 ppm alone) [%]	mortality at 20 ppm ([1]; flonicamid 20 ppm alone) [%]	mortality at 160 ppm ([2]; flonicamid 160 ppm alone) [%]	mortality at 80 ppm ([3]; flonicamid 80 ppm alone) [%]	mortality at 160 ppm ([3]; flonicamid 160 ppm alone) [%]
C=C(C)[C@H]1CC=C(C)CC1 [D-Limonene, (4R)-p-menth-1,8-diene]	7.7	27.7	4.5	21.3	0	35.1	–	–	–	–	–
N#CCNC(=O)c1cnccc1C(F)(F)F [Flonicamid, N-cyanomethyl-4-trifluoromethyl-3-pyridinecarboxamide]	–	–	–	–	–	–	7.9	16.1	68.8	25.5	55

— US10952438B2, “Pesticidal composition and method for controlling pests” (ISHIHARA SANGYO KAISHA, LTD., priority 2017, dated 2021)
